The source of these data is PMC6152224 (Molecules : A Journal of Synthetic Chemistry and Natural …, 2017).

One data set concerns the target T1, hAChE (Homo sapiens, UniProt P22303).
T1 construct: purchased Sigma-Aldrich (Prague, Czech Republic)
Briefly: Kinetic study of AChE inhibition (Lineweaver-Burk, nonlinear regression). In kind it is biochemical.

Data set [1] is described as follows: Experimentally determined physicochemical values with Sirius T3 device.
The test system of another data set is HepG2 cell line. Briefly: cells. In kind it is cell-based, human. Particulars: read-out: IC50 ± SEM HepG2.
The test system of a further data set is ACHN cell line. Briefly: cells. In kind it is cell-based, human. Conditions: read-out: IC50 ± SEM ACHN.
Another data set has as its system SH-SY5Y cell line. Briefly: cells. In kind it is cell-based, human. Conditions: read-out: IC50 ± SEM SH-SY5Y.
The nature of a further data set: in vitro. Particulars: PAMPA, pH 7.4.
For data set [2], the target named is T2, human plasmatic BChE (hBChE) (Homo sapiens, UniProt P06276).
T2 construct: human plasmatic BChE (hBChE, E.C. 3.1.1.8, purchased from Sigma-Aldrich); purchased Sigma-Aldrich (Prague, Czech Republic); host or cells: human plasma
T2 sequence (P06276 29-602): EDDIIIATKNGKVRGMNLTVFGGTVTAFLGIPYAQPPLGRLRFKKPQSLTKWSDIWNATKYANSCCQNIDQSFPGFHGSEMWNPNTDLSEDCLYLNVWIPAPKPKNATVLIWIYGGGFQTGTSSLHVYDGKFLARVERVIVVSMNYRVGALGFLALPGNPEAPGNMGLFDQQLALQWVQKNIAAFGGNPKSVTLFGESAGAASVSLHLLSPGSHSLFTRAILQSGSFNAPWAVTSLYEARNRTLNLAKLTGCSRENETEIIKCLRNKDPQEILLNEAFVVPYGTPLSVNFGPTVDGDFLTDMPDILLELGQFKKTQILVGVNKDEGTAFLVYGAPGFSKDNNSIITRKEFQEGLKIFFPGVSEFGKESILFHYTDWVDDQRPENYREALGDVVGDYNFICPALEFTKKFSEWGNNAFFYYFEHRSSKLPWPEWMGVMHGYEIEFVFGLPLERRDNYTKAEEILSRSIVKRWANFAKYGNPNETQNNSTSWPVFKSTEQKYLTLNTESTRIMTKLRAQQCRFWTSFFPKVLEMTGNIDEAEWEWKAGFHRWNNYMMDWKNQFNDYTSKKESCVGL
Briefly: In vitro anti-cholinesterase assay (modified Ellman's method), hBChE. In kind it is biochemical. Conditions: mean of at least three experiments; read-out: IC50 ± SEM hBChE.

The conditions of data set [3]: PAMPA; taken from ref 52, 53; cited from earlier work. On the technique in general: PAMPA measures passive passage across an artificial lipid membrane.
Another data set has as its system hBChE. Particulars: literature value; cited from earlier work.
For data set [4] the following is noted: PAMPA, pH 7.4.
In the next data set the test system is AChE. On the set-up: method as in PMID 23480140. Particulars: versus THA and (−)-huperzine A; cited from earlier work.
The subject of data set [5] is 3-nitropropionic acid (3-NP) intoxication. Particulars: 3-NP-induced assay, HupY pretreatment; cited from earlier work.
For data set [6], the system named is HepG2, ACHN and SH-SY5Y cell lines. Put plainly: cells. Conditions: Homo sapiens, 24 h, read-out: IC50 values for all the tested cell lines.
The mark [7] stands for this setting: MTT, cytotoxic profile assessed after 24 h.

Structures are written as SMILES. Structures can show the parent of a compound that is named as a salt. Where two headings read alike, the source gives them in different places.

T1 sequence (P22303 32-614): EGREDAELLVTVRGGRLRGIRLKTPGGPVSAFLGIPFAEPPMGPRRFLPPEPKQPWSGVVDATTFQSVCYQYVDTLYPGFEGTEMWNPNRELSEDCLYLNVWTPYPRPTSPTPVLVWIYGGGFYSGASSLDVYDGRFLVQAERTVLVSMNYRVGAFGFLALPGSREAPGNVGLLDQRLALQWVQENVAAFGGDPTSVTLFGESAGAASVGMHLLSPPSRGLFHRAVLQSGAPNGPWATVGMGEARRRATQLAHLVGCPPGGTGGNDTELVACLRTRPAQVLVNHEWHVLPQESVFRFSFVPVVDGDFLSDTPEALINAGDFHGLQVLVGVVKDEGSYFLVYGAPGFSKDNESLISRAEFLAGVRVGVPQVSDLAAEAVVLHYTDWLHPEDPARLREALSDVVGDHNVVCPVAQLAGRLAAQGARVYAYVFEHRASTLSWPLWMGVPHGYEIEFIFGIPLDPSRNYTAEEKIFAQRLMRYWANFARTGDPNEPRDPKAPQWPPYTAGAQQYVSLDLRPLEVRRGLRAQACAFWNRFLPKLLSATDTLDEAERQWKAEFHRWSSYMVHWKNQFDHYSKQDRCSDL

By logP is commonly meant the decadic logarithm of the partition coefficient of the neutral form, usually between octanol and water. What is called pKa is the negative logarithm of the acid dissociation constant. The term IC50 denotes the point on the concentration scale where inhibition reaches its midpoint. As a reminder, the Papp is the rate of passage across a membrane or cell layer, normalised by area and donor concentration. For `COc1ccc2nc3c(c(N)c2c1)C1CC(C)=CC(C3)C1` (racemic) [(±)-1·HCl, rac-6-Methoxy-15-methyl-10-azatetracyclo[11.3.1.0^2,11.0^4,9]heptadeca-2(11),3,5,7,9,14-hexaen-3-amine hydrochloride], the “Ki'” value at hAChE (enzyme-substrate complex, inhibitor 1.00, 10.0 and 100 µM) stood at 3.67 ± 0.42 µM. Besides, the type of inhibition entry on hAChE (nonlinear regression, sum-of-squares F-test, p < 0.05) is on record as “mixed type of inhibition”. Besides, in data set [1] (pH 7.4, read-out: logD7.4 (experimental)), the logD is 1.73. Besides, in data set [1] (read-out: logP (experimental)), the logP was 3.58. For the same compound, the pKa in [1] (read-out: pKa (experimental)) was 9.54. For the same compound, the IC50 with HepG2 cell line (Homo sapiens, HepG2, 24 h) is 14.91 ± 0.11 µM; with ACHN cell line (Homo sapiens, ACHN, 24 h), 32.2 ± 0.72 µM; in the data set with SH-SY5Y cell line (Homo sapiens, SH-SY5Y, 24 h), 17.84 ± 0.09 µM. The same compound returned a Papp at 100 µM in “in vitro” of 7.64 ± 0.22 ×10⁻⁶ cm/s.

On to `CC1=CC2Cc3nc4cc(Cl)ccc4c(N)c3C(C1)C2` (racemic) [(±)-HupY·HCl, rac-7-Chloro-15-methyl-10-azatetracyclo[11.3.1.0^2,11.0^4,9]heptadeca-2(11),3,5,7,9,14-hexaen-3-amine hydrochloride], for which the IC50 came to 0.358 ± 0.025 µM in [2]; 15.9 ± 1.17 µM in the data set on HepG2 cell line (Homo sapiens, HepG2, 24 h); 24.6 ± 0.32 µM in the data set with ACHN cell line (Homo sapiens, ACHN, 24 h); 17.5 ± 0.44 µM with SH-SY5Y cell line (Homo sapiens, SH-SY5Y, 24 h). This compound returned a Papp in the data set “in vitro” of 5.89 ± 0.36 ×10⁻⁶ cm/s.

Turning to `Nc1c2c(nc3cc(Cl)ccc13)CCCC2` [6-chlorotacrine], the IC50 was 43.2 ± 1.17 µM in the data set on HepG2 cell line, 55.1 ± 1.76 µM with ACHN cell line (setting [7]) and 50.4 ± 1.28 µM with SH-SY5Y cell line (setting [7]). Besides, the “Pe ± SEM” value in data set [3] is listed as 5.00 ± 0.45 ^c 10^−6 cm·s^−1.

Consider `CC1=C[C@H]2Cc3nc4cc(Cl)ccc4c(N)c3[C@@H](C1)C2` [(+)-HupY], for which the IC50 in the data set with hBChE was 0.153 µM.

`CC1=C[C@@H]2Cc3nc4cc(Cl)ccc4c(N)c3[C@H](C1)C2` [(−)-HupY]: in the data set with hBChE, the IC50 is 0.247 µM.

As to `CO/N=C(\C(=O)N[C@@H]1C(=O)N2C(C(=O)O)=C(COC(N)=O)CS[C@H]12)c1ccco1` [Cefuroxim, cefuroxime], the “Pe ± SEM” value in data set [4] is recorded as 2.70 ± 0.1 10^−6 cm·s^−1.

Consider `COc1ccc2nc3c(c(N)c2c1)CCCC3` [Compound 7-MEOTA, 7-methoxytacrine], for which the IC50 came to 44.4 ± 3.35 µM in the data set with HepG2 cell line (Homo sapiens, HepG2, 24 h); 49.3 ± 2.69 µM in the data set with ACHN cell line (Homo sapiens, ACHN, 24 h); 26.8 ± 1.04 µM in the data set on SH-SY5Y cell line (Homo sapiens, SH-SY5Y, 24 h). The compound also showed a Papp in the data set “in vitro” of 6.5 ± 1.85 ×10⁻⁶ cm/s.

As to `CCC1=CC2Cc3nc4cc(Cl)ccc4c(N)c3[C@@H](C1)C2` [HupX], the “AChE inhibition potency relative to the parent structures” value in the data set with AChE is “more than 100 times”.

As for `CC1=CC2Cc3nc4cc(Cl)ccc4c(N)c3C(C1)C2` (centres unmarked) [HupY], the “survival of pretreated mice” value in data set [5] is given as “increased the survival”.

Regarding `CN1C(C(=O)Nc2ccccn2)=C(O)c2ccccc2S1(=O)=O` [Piroxicam, piroxicam], in data set [4], the “Pe ± SEM” value is on record as 2.20 ± 0.15 10^−6 cm·s^−1.

For `Nc1c2c(nc3ccccc13)CCCC2` [THA, 1,2,3,4-tetrahydro-9-aminoacridine], the IC50 in the data set on ACHN cell line (Homo sapiens, ACHN, 24 h) was 155.2 ± 0.67 µM; in the data set on SH-SY5Y cell line (Homo sapiens, SH-SY5Y, 24 h), 121 ± 1.97 µM; in [6] it was 120 to 168 µM. Also, in data set [3], the “Pe ± SEM” value was 5.30 ± 0.20 ^c 10^−6 cm·s^−1.
